Results taken from US4847253A, “Antiparkinson ergoline derivatives” (Farmitalia Carlo Erba, priority 1987, dated 1989).
Entries after “also recorded” stand apart in the source; their conditions may differ.

Legend:
6-OHDA lesioned rats = assay: Contralateral turning behavior in 6-OHDA lesioned rats; type: in vivo, Male (ICR) Wistar rats; details: scored for six hours
Method: The profile of dopamine agonists of the compound of the formula I was preliminary discovered by an induction of contralateral turning in rats with unilateral 6-hydroxy dopamine-induced lesions of the dopaminergic nigrostriatal pathway (according to the principles of U. Ungerstedt et al., Brain Research 24 (1970); p. 485).
Male (ICR) Wistar rats (290-310 g) anaesthetized i.p. with 50 mg/kg pentobarbital sodium were placed in a Stoelting stereotaxis frame and unilaterally injected with 6-hydroxy-dopamine (6-OHDA) in substantia nigra, pars compacta (8 μg of free base in 4 μl of saline kept ice cold with 0.2% ascorbic acid at the rate of 1 μl/min.). The neurotoxin was injected via a 10 μl Hamilton syringe under the following coordinates: A, 3.7 mm anterior to interaural line; V. 2.2 mm dorsal to interaural line; L, 2.2 mm from midline, according to Paxinos and Watson (The rat brain in stereotaxic coordinates. Academic Press, Sydney, Australia, 1982).
The needle was left in place 5 minutes further before being slowly withdrawn.
Following recovery from anaesthesia, rats were housed in a cage and given access to food and water ad libitum. After a 3 week recovery, rats were injected with apomorphine (0.5 mg/kg s.c.) and immediately put in automated rotometer bowls with a printing unit for 3 hours.
Only rats showing contralateral turning behavior totalling at least 250 complete turns within the control time, were used for the test with the compounds.
The test compounds were injected subcutaneously and rotational behavior scored each time for six hours.
All tested compounds were administered in a fixed volume (2 ml/kg body weight).

[1] = known side effects, background; cited from earlier work
[2] = test system: apomorphine-induced climbing; assay: Antagonism to apomorphine-induced climbing in normal mice; type: in vivo; details: for ED50: Mus musculus, po
Method: The anti-dopaminergic activity in normal mice of the ergoline derivatives according to the invention was assessed by the antagonism to apomorphine-induced climbing (Protais, P. et al., Psychopharmacology, 50, 1, 1976).

MPTP treated monkeys = assay: MPTP-induced parkinsonism in monkey model; type: in vivo, Marmosets and cynomolgus
Text: In nonhuman primates MPTP (1-methyl-4-phenyl-1,2,3,6-tetrahydropyridine) selectively destroys dopaminergic neurons in the substantia nigra pars compacta as has been shown in different primate species (1) (2) including the common marmoset and cynomolgus.
Repeated administration of MPTP produces varying degrees of akinesia or bradykinesia accompanied by rigidity of limbs, loss of vocalization and postural tremor.
Marmosets and cynomolgus were employed in these experiments. Each animal was administered a variable dosage regime showing them to have an individual susceptibility to MPTP according to Jenner et al. (3).
For the marmoset the cumulative dose was between 11-29 mg/kg i.p. over time courses of 4-10 days for three marmosets and 10-12 mg/kg i.p. for two cynomolgus in 4 days. All the monkeys were severely affected, completely akinetic and rigid with loss of vocalization, and blink reflex, with some postural tremor and were rendered unable to eat by themselves. After two or three days of wash-out to avoid the acute effect of MPTP administration, compound FCE 23884 was injected subcutaneously once a day starting from the dose 0.1 mg/kg up to 2 mg/kg.
Saline was administered in alternate fashion every three treatements to avoid the normal described improvement after the suspension of MPTP administration.

Reserpine-Treated Mice = assay: Locomotor activity in reserpine-treated mice; type: in vivo, Male mice, Crl:CD-1 (ICR) BR strain; details: for No. of counts in 85 min.: reserpine 5 mg/kg i.p. pretreated; for locomotor activity in akinetic reserpinized mice: result in words, FCE 23884 at 1 mg/kg s.c.
Method: Male mice, (22-25 g) of the Crl:CD^R -1 (ICR) BR strain, were used. Injection volume for drugs was 0.5 ml/100 g body weight. Locomotor activity in mice was examined from 5 up to 90 min. by use of two "Columbus activity Meters" placing 5 animals per cage after each treatment. Comparison was made with reserpine treated animals (5 mg/kg i.p.) receiving saline (controls).
Groups of five mice were used each time. Eighteen hours reserpine pretreated mice were subcataneously injected with the test compound or apomorphine or saline.
Five minutes later, the animals were tested for locomotor activity according D. Hinzen et al., European Journal of Pharmacology 131 (1986) 75-86.

non-MPTP treated monkeys = assay: Behavior in non-MPTP treated monkeys; type: in vivo; details: s.c.

Structure (SMILES) | No. of contralateral turns (X) in turning rats (6-OHDA lesioned rats; 1.0 mg/kg s.c.) | Turning rats/Treated rats (6-OHDA lesioned rats; 1.0 mg/kg s.c.) | ED50 [2] | locomotor activity in akinetic reserpinized mice (Reserpine-Treated Mice) | further results
CC(C)C[C@H]1C(=O)N2CCC[C@H]2[C@]2(O)O[C@](NC(=O)[C@@H]3C=C4c5cccc6[nH]c(Br)c(c56)C[C@H]4N(C)C3)(C(C)C)C(=O)N12 [Bromocriptine, reference compound] | 1922.3 | 6/9 |  |  | adverse effects [1]: emesis, hypotension, cardiac arrhythmia, digital vasospasm in cold weather, conjunctival irritation, diplopia, nasal stuffiness, constipation and syndrome of bilateral red, tender edema of the lower limbs and neuroendocrine alterations; Apomorphine antagonism (ED50) ([2]; p.o.): Inactive at 10 mg/kg
CN1C(=O)CN(C[C@@H]2C[C@@H]3c4cccc5[nH]cc(c45)C[C@H]3N(C)C2)CC1=O [FCE 23710, 6-Methyl-8β-(3,5-dioxo-4-methyl-piperazin-1-yl-methyl)-ergoline] | 1829.2 | 4/4 | 2.2 mg/kg |  | 
CN1C[C@H](CN2CC(=O)NC(=O)C2)C=C2c3cccc4[nH]cc(c34)C[C@H]21 [FCE 23884, 6-Methyl-9,10-didehydro-8β-(3,5-dioxo-piperazin-1-yl-methyl)-ergoline] | 2146 | 5/5 | 0.5 mg/kg | elicits locomotor activity as does apomorphine | reversal of akinesia, time of onset (MPTP treated monkeys; highest dose, 2 mg/kg s.c.): 5 min; reversal of akinesia, time of onset (MPTP treated monkeys; lowest dose, 0.1 mg/kg s.c.): 30 min; effect in lesioned / MPTP treated monkeys (MPTP treated monkeys; s.c.): dopaminergic effect in lesioned animals; also recorded: dopaminergic agent in the MPTP treated monkeys; Reversal of akinesia (MPTP treated monkeys; s.c. once a day, 0.1 mg/kg up to 2 mg/kg): Reversal of akinesia in a dose-dependent fashion was observed; No. of counts in 85 min. (Reserpine-Treated Mice; 1.0 mg/kg s.c.): 625; No. of contralateral turns (X) in turning rats (6-OHDA lesioned rats; 0.1 mg/kg s.c.): 1317.5; Turning rats/Treated rats (6-OHDA lesioned rats; 0.1 mg/kg s.c.): 9/10; No. of contralateral turns (X) in turning rats (6-OHDA lesioned rats; 0.5 mg/kg s.c.): 2591.7; Turning rats/Treated rats (6-OHDA lesioned rats; 0.5 mg/kg s.c.): 10/10; behavioral effect in non-MPTP treated monkeys (non-MPTP treated monkeys): sedative effect in a dose-dependent fashion; also recorded: antidopaminergic in non MPTP-treated monkeys
CN1C[C@H](CN2CC(=O)NC(=O)C2)C[C@@H]2c3cccc4c3c(cn4C)C[C@H]21 [FCE 23952, 1,6-Dimethyl-8β-(3,5-dioxo-piperazin-1-yl-methyl)-ergoline] | 710.5 | 4/4 | 0.9 mg/kg |  | 
CN1CCc2cccc3c2[C@H]1Cc1ccc(O)c(O)c1-3 [apomorphine, reference compound] |  |  |  | elicits locomotor activity | No. of counts in 85 min. (Reserpine-Treated Mice; 0.05 mg/kg s.c.): 413
